Test system: panel of 144 protein kinases
Experiment: protein kinase panel (SelectScreen; Thermofisher)
Type: biochemical
Details: panel incl. protein kinase C isoforms, OSR1, SPAK (STK39), WNK
Protocol: Aliquots of HEK-293 cells expressing KCC2 were exposed to 30 μM SSA, heated from 37-55° C. The remaining level of soluble native KCC2 at each temperature was measured by immunoblotting and normalized to the level seen at 37° C. which was given a value of 1. […] This panel included protein kinase C isoforms, OSR1, SPAK (STK39) and with-no-lysine kinases (WNK), all of which phosphorylate KCC2 on multiple residues to indirectly modify its activity (Kahle et al., 2013, supra; Smalley et al., 2020, supra).

Compound: C[C@@H]1CN(c2nc3c(c(Nc4ccc(C5CCCCC5)cc4)n2)COC3)CCO1 [Compound A, (R)—N-(4-cyclohexylphenyl)-2-(2-methylmorpholino)-5,7-dihydrofuro[3,4-d]pyrimidin-4-amine]
- activity of a panel of 144 protein kinases: did not modify the activity
